Test results published in paper PMC3965624 (Life sciences, 2014).

Target: NTSR1 (Homo sapiens, UniProt P30989)
Experiment: […]-Tyr3-NTS radioligand displacement on intact NCI-H1299 cells
Assay type: cell-based

Sequence of NTSR1 (P30989 whole entry): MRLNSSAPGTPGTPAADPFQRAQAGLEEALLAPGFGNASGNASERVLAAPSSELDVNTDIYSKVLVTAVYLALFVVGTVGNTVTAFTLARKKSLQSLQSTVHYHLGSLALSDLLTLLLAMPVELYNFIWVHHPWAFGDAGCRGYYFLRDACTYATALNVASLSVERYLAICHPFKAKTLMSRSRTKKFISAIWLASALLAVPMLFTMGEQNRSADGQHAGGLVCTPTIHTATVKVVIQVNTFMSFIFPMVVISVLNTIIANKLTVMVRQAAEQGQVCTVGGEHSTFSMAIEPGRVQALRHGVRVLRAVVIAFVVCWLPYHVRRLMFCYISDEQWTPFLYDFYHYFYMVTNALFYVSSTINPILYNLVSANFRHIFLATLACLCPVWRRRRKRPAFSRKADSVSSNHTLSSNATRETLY

IC50: 205 nM
SMILES: COc1cccc(OC)c1-c1cc(C(=O)NC2(C(=O)O)C3CC4CC(C3)CC2C4)nn1-c1ccnc2cc(Cl)ccc12 (stereo not shown) [SR48692]
